In paper PMC8911826, “Design of Oligourea-Based Foldamers with Antibacterial and Antifungal Activities” (Molecules, 2022):
Converted amounts (≈) assume the structure as drawn. Like-named read-outs stand apart in the source and are kept apart here. Marks after values point to notes of the source that are not given here.

Assays:
[1] = test system: Aspergillus fumigatus 098; test: Antifungal assay on spores, growth evaluated by microscopy; assay type: cell-based; settings: 30 °C, 24 h without agitation, n = 3
Experimental: Aspergillus fumigatus strain (A. fumigatus, ASPFU098 from Dynamique des interactions hôte pathogène (DIHP) laboratory—EA 7292, Strasbourg) were tested to evaluate the antifungal properties of foldamers. Spores were resuspended at a concentration of 10^3 spores/mL in Sabouraud dextrose broth medium. Test samples were incubated with 90 μL of fungal spores. The suspension was incubated at 30 °C for 24 h without agitation. Fungal growth was monitored microscopically after 24 h. Media alone was used as negative control and corresponds to 100% fungal growth; voriconazole (50 μg/mL) was used as a positive control and corresponds to 100% growth inhibition.

[2] = test system: E. coli ATCC 25922; assay type: cell-based, Escherichia coli
Experimental: (§1) Staphylococcus aureus (S. aureus, ATCC 25923), Staphylococcus aureus S1 Methicillin Resistant (MRSA; this strain was kindly provided by Dr Gilles Prévost, University of Strasbourg), Escherichia coli (E. coli, ATCC 25922), and Pseudomonas aeruginosa (P. aeruginosa, ATCC 27853) strains were used to assess the antibacterial properties of the samples. Bacterial strain was cultured aerobically at 37 °C in Mueller–Hinton broth (MHB) medium (Merck, Germany), pH 7.4. One colony was transferred to 10 mL of MHB medium and incubated at 37 °C for 20 h. To obtain bacteria in the mid logarithmic phase of growth, the absorbance at 620 nm of overnight culture was adjusted to 0.001, corresponding to a final density of 5 × 10^5 CFU/mL. Ninety percent of this culture was incubated with 10% of the test compound at different concentrations. The positive control was composed of 90% bacterial suspension and 10% a mixture of antibiotics (tetracycline: 10 μg/mL and cefotaxime: 0.1 μg/mL in PBS). The negative control was composed of 90% of the bacterial suspension and 10% of PBS, corresponding to our 100% growth.
(§2) In order to test the influence of serum on the minimal inhibitory concentration (MIC), we added 10% decomplemented fetal bovine serum or 50% nondecomplemented fetal bovine serum in MHB medium. After 24 h of incubation at 37 °C with shaking, the optical density at 620 nm of each well was measured. The smallest concentration for which bacterial growth is 0% corresponds to the MIC of the tested compound.

[3] = test system: S. aureus ATCC 25923; assay type: cell-based, Staphylococcus aureus
Experimental: as §1, §2

[4] = test system: MDA-MB-231 cells
Experimental: (§3) We used the human breast cancer cell line MDA-MB-231. The cells were cultured using RPMI that was supplemented with 100 units/mL penicillin, 100 µg/mL streptomycin, and 10% of fetal calf serum (FCS from HyClone, Fischer Scientific, Illkirch, France). The MDA-MB-231 cells were plated in 48-well plates one day before the experiments were conducted. The cell confluence was around 60% the day of the assay.
The membrane permeabilization activity was measured as the leakage of lactate dehydrogenase (LDH) from the cells. […] Thereby, foldamers were incubated with MDA-MB-231 cells and after incubation at 37 °C for 1 h and 10 min, an aliquot (50 μL) of the supernatant of each well was used for the measurement of the LDH activity. […] The LDH release was measured using a commercially available kit (CytoTox-ONE membrane integrity assay from Promega). Untreated cells were used as control. The value of 100% LDH release was obtained by using cells treated with a lysis buffer. Absorbance was measured at 490 nm (and at 680 nm for background).

[5] = test system: C. albicans ATCC 18804; test: Antifungal MIC assay in SAB, C. albicans; assay type: cell-based, Candida albicans
Experimental: The Candida albicans (C. albicans, ATCC 18804) strain was used to assess the antifungal properties of the samples. Briefly, C. albicans was cultured aerobically at 30 °C in Sabouraud dextrose broth (SAB) medium (Becton Dickinson, Voisins le Bretonneux, France). One colony was then transferred to 10 mL of SAB medium and incubated at 30 °C for 20 h. The absorbance at 620 nm of overnight culture was adjusted to 0.001 and the tests were performed under the same conditions as those used for bacteria, with the exception of the temperature (30 °C instead of 37 °C) and the culture medium (SAB instead of MHB).

[6] = test system: Staphylococcus aureus S1 Methicillin Resistant (MRSA); assay type: cell-based
Experimental: as §1, §2

[7] = test system: MDA-MB-231 cells; settings: 24 h
Experimental: as §3
The cell viability was determined on MDA-MB-231 cells by performing the MTS assay (3-(4,5-dimethylthiazol-2-yl)-5-(3-carboxymethoxyphenyl)-2-(4-sulfophenyl)-2H-tetrazolium salt) (CellTiter 96® AQueous One Solution Cell Proliferation Assay from Promega). This assay was performed using biological triplicates (same amount of foldamer were added to 3 different wells). Increasing amounts of foldamer diluted in 250 μL/well of RPMI 10% FCS were added to the cells. After 24 h of incubation, the culture medium was removed and replaced with 300 μL/well of RPMI 10% FCS containing the MTS reagent (50 μL/well). After incubation at 37 °C for 1 h and 10 min, 200 μL of medium were withdrawn and used to measure the absorbance at 490 nm (and 680 nm for background). Untreated cells were used as control (100% of cell viability).

[8] = test system: P. aeruginosa ATCC 27853; assay type: cell-based, Pseudomonas aeruginosa; settings: for MIC, P. aeruginosa ATCC 27853: MHB medium pH 7.4, 24 h, 100 μL, 5 × 10^5 CFU/mL, OD 620 nm, lowest concentration with 0% growth, mean of 3 samples
Experimental: as §1, §2

[9] = test system: S. aureus; settings: 50% bovine serum; cited from earlier work
[10] = MHB medium pH 7.4, 24 h, 37 °C, 100 μL, 5 × 10^5 CFU/mL, OD 620 nm, lowest concentration with 0% growth, mean of 3 samples
[11] = Table S2, MIC of Table 1 in μM, MHB, 24 h, 37 °C

MIC, E. coli 25922 ([2]; ATCC 25922, 24 h) [μΜ] | MIC, E. coli ATCC 25922 [2, 10] [µg/mL] | MIC, C. albicans 18804 ([5]; ATCC 18804, 24 h) [µg/mL] | MIC, S. aureus 25923 ([3]; ATCC 25923, 24 h) [μΜ] | MIC, S. aureus ATCC 25923 [3, 10] | MIC, MRSA [6, 10] [µg/mL] | MIC, MRSA ([6]; S1 Methicillin Resistant, 24 h) [μΜ] | MIC, P. aeruginosa 27853 ([8]; ATCC 27853, 24 h) [μΜ] | MIC, P. aeruginosa ATCC 27853 ([8]; 37 °C) [µg/mL] | Compound | also measured
– | – | – | – | – | – | – | – | – | C[C@@H](c1ncncc1F)[C@](O)(Cn1cncn1)c1ccc(F)cc1F [Voriconazole, reference compound] | MIC ([1]; Aspergillus fumigatus, 098, spores in Sabouraud dextrose broth): 12.5 µg/mL (≈ 35.8 µM)
– | – | – | – | – | – | – | – | – | CC(=O)N[C@@H](CCCNC(=N)N)C(=O)N[C@@H](Cc1c[nH]cn1)C(=O)N[C@@H](CCCNC(=N)N)C(=O)N[C@@H](Cc1c[nH]cn1)C(=O)N[C@@H](CCCNC(=N)N)C(=O)N[C@H](CNC(=O)N[C@H](CNC(=O)N[C@H](CNC(=O)N[C@H](CNC(N)=O)Cc1c[nH]c2ccccc12)C(C)C)Cc1c[nH]c2ccccc12)C(C)C [OL-7] | MIC, E. coli ATCC 25922 ([2]; ATCC 25922, 24 h, pH 7.4): ≥ 100 µg/mL; MIC, S. aureus ATCC 25923 ([3]; ATCC 25923, 24 h, pH 7.4): ≥ 100 µg/mL
8.7 | 12.5 (≈ 8.72 µM) | 12.5 (≈ 8.72 µM) | 8.7 | 12.5 µg/mL (≈ 8.72 µM) | 12.5 (≈ 8.72 µM) | 8.7 | 34.8 | 50 (≈ 34.9 µM) | CC(C)NC(=O)N[C@H](CNC(=O)N[C@H](CNC(=O)N[C@H](CNC(=O)N[C@H](CNC(=O)N[C@H](CNC(=O)N[C@H](CNC(=O)N[C@@H](CCCNC(=N)N)CNC(=O)N[C@H](CCC(N)=O)C(C)C)Cc1c[nH]c2ccccc12)Cc1c[nH]cn1)C(C)C)Cc1c[nH]c2ccccc12)Cc1c[nH]cn1)C(C)C [OL-3] | LDH leakage / alteration of the membranes [4]: least cytotoxic foldamer towards mammalian cells; MIC, Aspergillus fumigatus 098 ([1]; spores in Sabouraud dextrose broth): below 50 μg/mL; MIC towards MRSA in the presence of 10% serum versus without ([6]; MHB supplemented with 10% decomplemented fetal calf serum, 24 h, 37 °C, mean of three samples): remained unaffected; Change of MIC towards MRSA in the presence of 50% serum ([6]; MHB supplemented with 50% nondecomplemented fetal calf serum, 24 h, 37 °C, mean of three samples): two to four-fold; IC50, cell viability (MTS) [7]: about 50 μg/mL
4.3 | 6.25 (≈ 4.3 µM) | 12.5 (≈ 8.6 µM) | 4.3 | 6.25 µg/mL (≈ 4.3 µM) | 12.5 (≈ 8.6 µM) | 8.6 | 17.2 | 25 (≈ 17.2 µM) | CC(C)NC(=O)N[C@H](CNC(=O)N[C@H](CNC(=O)N[C@H](CNC(=O)N[C@H](CNC(=O)N[C@@H](CCCNC(=N)N)CNC(=O)N[C@H](CNC(=O)N[C@@H](CCCNC(=N)N)CNC(=O)N[C@H](CCC(N)=O)C(C)C)Cc1c[nH]c2ccccc12)C(C)C)Cc1c[nH]c2ccccc12)Cc1c[nH]cn1)C(C)C [OL-2] | –
9.14 | 12.5 (≈ 9.14 µM) | 12.5 (≈ 9.14 µM) | 9.14 | 12.5 * μg/mL | 50 (≈ 36.6 µM) | 36.56 | 9.14 | 12.5 (≈ 9.14 µM) | CC(C)[C@H](N)CNC(=O)N[C@H](CNC(=O)N[C@H](CNC(=O)N[C@H](CNC(=O)N[C@@H](CCCNC(=N)N)CNC(=O)N[C@H](CNC(=O)N[C@@H](CCCNC(=N)N)CNC(=O)N[C@H](CCC(N)=O)C(C)C)Cc1c[nH]c2ccccc12)C(C)C)Cc1c[nH]c2ccccc12)Cc1c[nH]cn1 [OL-1] | –
– | – | – | – | – | – | – | – | – | Pexiganan | Loss of activity in the presence of serum [9]: 32 fold
4.25 | 6.25 (≈ 4.25 µM) | 6.25 (≈ 4.25 µM) | 8.5 | 12.5 µg/mL (≈ 8.49 µM) | 6.25 (≈ 4.25 µM) | 4.25 | 8.5 | 12.5 (≈ 8.49 µM) | CC(C)NC(=O)N[C@H](CNC(=O)N[C@@H](CCCNC(=N)N)CNC(=O)N[C@H](CNC(=O)N[C@H](CNC(=O)N[C@@H](CCCNC(=N)N)CNC(=O)N[C@H](CNC(=O)N[C@@H](CCCNC(=N)N)CNC(=O)N[C@H](CCC(N)=O)C(C)C)Cc1c[nH]c2ccccc12)C(C)C)Cc1c[nH]c2ccccc12)C(C)C [OL-5] | –
– | – | – | – | – | – | – | – | – | CC(=O)N[C@@H](CCCCN)C(=O)N[C@@H](Cc1c[nH]cn1)C(=O)N[C@@H](CCCCN)C(=O)N[C@@H](Cc1c[nH]cn1)C(=O)N[C@@H](CCCCN)C(=O)N[C@@H](C)CNC(=O)N[C@H](CNC(=O)N[C@@H](C)CNC(=O)N[C@H](CNC(N)=O)Cc1c[nH]c2ccccc12)Cc1c[nH]c2ccccc12 [OL-6] | MIC, E. coli ATCC 25922 ([2]; ATCC 25922, 24 h, pH 7.4): ≥ 100 µg/mL; MIC, S. aureus ATCC 25923 ([3]; ATCC 25923, 24 h, pH 7.4): ≥ 100 µg/mL

Compound | MIC, E. coli 25922 ([2]; ATCC 25922, 24 h) [μΜ] | MIC, E. coli ATCC 25922 [2, 10] [µg/mL] | MIC, C. albicans 18804 ([5]; ATCC 18804, 24 h) [µg/mL] | MIC, S. aureus 25923 ([3]; ATCC 25923, 24 h) [μΜ] | MIC, S. aureus ATCC 25923 [3, 10] | MIC, MRSA [6, 10] [µg/mL] | MIC, MRSA ([6]; S1 Methicillin Resistant, 24 h) [μΜ] | MIC, P. aeruginosa 27853 ([8]; ATCC 27853, 24 h) [μΜ] | MIC, P. aeruginosa ATCC 27853 ([8]; 37 °C) [µg/mL] | also measured
CC(C)NC(=O)N[C@@H](CCCNC(=N)N)CNC(=O)N[C@H](CNC(=O)N[C@H](CNC(=O)N[C@H](CNC(=O)N[C@H](CNC(=O)N[C@H](CNC(=O)N[C@H](CNC(=O)N[C@@H](CCCNC(=N)N)CNC(=O)N[C@H](CCC(N)=O)C(C)C)Cc1c[nH]c2ccccc12)Cc1c[nH]cn1)C(C)C)Cc1c[nH]c2ccccc12)Cc1c[nH]cn1)C(C)C [OL-4] | – | 6.25 (≈ 3.86 µM) | – | – | 6.25 µg/mL (≈ 3.86 µM) | 6.25 (≈ 3.86 µM) | – | – | 50 (≈ 30.9 µM) | MIC, E. coli 25922 [2, 11]: 3.86 μΜ; MIC, C. albicans 18804 ([5]; Sabouraud dextrose broth (SAB), 24 h, 30 °C, 100 μL, OD 620 nm, n = 3): 12.5 µg/mL (≈ 7.72 µM); MIC, S. aureus 25923 [3, 11]: 3.86 μΜ; MIC, MRSA [6, 11]: 3.86 μΜ; MIC, P. aeruginosa 27853 [8, 11]: 30.88 μΜ
